Experimental findings from PubChem BioAssay AID588780 (Sanford-Burnham Center for Chemical Genomics, 2011) are described below.

pIC50: −log10 of the molar value. The source made the active and inactive calls.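 How the source made its calls: active means compounds whose fitted half-maximal concentration in the cell-protection dose series is at or below a set limit; inactive means the rest.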 A value given as a limit tells only on which side of the number the result lay.

For this assay, the system named is H9c2 cardiomyocytes, 2-deoxyglucose stress, ATP luminescence, 2 h. In words: H9c2 cell survival under 2-deoxyglucose stress – uHTS hits, dose response (AID 588780).
Broadly, the IC50 is the concentration that gives 50% inhibition. For the molecule `CCOc1cc(/C=C/c2nc3ccccc3c(=O)[nH]2)ccc1O`, the IC50 was > 79 µM (inactive).
Turning to `Cn1c2c(c(=O)n(C)c1=O)C(c1cccc([N+](=O)[O-])c1)Nc1ccccc1O2` (centres undefined), the IC50 was > 79 µM (inactive).
Same read-out and setting: as for `CCOC(=O)C1CCN(c2cc3c(cc2NC(=O)c2ccccc2)n(C)c(=O)n3C)CC1`, the figure is > 79 µM (inactive).
Broadly, the pIC50 is the negative decadic logarithm of the IC50, by convention in mol/L. Consider `CC(C)(C)OC(=O)CNC(=O)c1[nH]cnc1C(=O)NC(c1ccccc1)c1ccccc1`, for which the pIC50 is 4.72.
Same read-out and setting: next, `COc1cc(-c2cc3nc(NCCOc4ccccc4)ccn3n2)cc(OC)c1OC`: 4.86.
On to `COc1cc(-c2cc(NC=O)c3ncc(-c4ccccc4)n3c2)cc(OC)c1OC`, for which the IC50 was > 79 µM (inactive).
On to `COc1cc(/C=C(\C#N)C(=O)Nc2ccccc2)ccc1OCCN1CCOCC1`, for which the pIC50 is 4.55.
For `CC1(C)CC2C1CCC1(O)CC2(C)CCC1N(O)c1ccc(C(=O)NCCO)cn1` (centres undefined), the pIC50 is 4.55.
For the molecule `O=C(NO)c1ccc(C(=O)N(C2CCCCC2)C2CCCCC2)cc1`, the IC50 is > 79 µM (inactive).
The same measure, in the same setting: as for `Cc1ccc(-c2n[nH]c(=O)c3ccccc23)cc1S(=O)(=O)NCCO`, the figure is 39.8 µM (inactive); as for `CCc1nnc(NC(=O)CCC(=O)N2CCN(C3c4ccccc4-c4ccccc43)CC2)s1`, > 79 µM (inactive).
For the molecule `CCN(CC)CCn1c2c(c(SCC(=O)Nc3cccc(C(C)=O)c3)nc1=O)CCCC2`, the pIC50 is 4.88.
As for `CCSc1nnc(NC(=O)C2Cc3ccccc3CN2S(=O)(=O)CC)s1` (centres undefined), the IC50 was 43.6 µM (inactive).
On the same count and under the same terms, next, `CC(=O)c1cccc(NC(=O)C(C)OC(=O)Cc2n[nH]c(=O)c3ccccc23)c1` (centres undefined): > 79 µM (inactive); `COc1ccc(-c2cc(C(=O)N(C)Cc3nc4ccccc4c(=O)[nH]3)c3ccccc3n2)cc1OC`: > 79 µM (inactive).
The same measure, in the same setting: next, `COc1ccc(OC)c(/C=N/NC(=O)c2cc3c(OC)c(OC)ccc3[nH]2)c1`: > 79 µM (inactive).
Still for that read-out and setting: as for `O=C(Nc1cccc(Cl)c1)c1nc[nH]c1C(=O)NCCCCNC(=O)c1[nH]cnc1C(=O)Nc1cccc(Cl)c1`, the figure is > 79 µM (inactive); as for `CC(C)(C)c1ccc(OCC(=O)Nc2ccc3c4c(cccc24)C(=O)NC3=O)cc1`, > 79 µM (inactive).
For `Cc1c(O)ccc2c3c(c(=O)oc12)CCC(C)C3` (centres undefined), the pIC50 was 4.80.
On to `Cc1csc2nc(COC(=O)c3ccc(Cl)c([N+](=O)[O-])c3)cc(=O)n12`, for which the IC50 was > 79 µM (inactive).
For `O=C(CN1CCN(S(=O)(=O)c2ccc(Br)cc2)CC1)c1ccc(O)c(O)c1`, the negative-log IC50 (pIC50) was 4.70.
Turning to `O=C1NC(=O)c2c(Br)c(Br)c(Br)c(Br)c21`, the IC50 is > 79 µM (inactive).
The same measure, in the same setting: as for `COc1cc(-c2cc(NC=O)c3ncc(-c4ccc(C(C)=O)cc4)n3c2)cc(OC)c1OC`, the figure is > 79 µM (inactive).
The same measure, in the same setting: as for `CCCNC(=O)c1ccc2c(=O)c(O)c(-c3ccc(C)cc3)[nH]c2c1`, the figure is > 79 µM (inactive).
`O=Cc1ccc(OCc2cccc(C(F)(F)F)c2)cc1O`: the pIC50 is 4.55.
As to `O=c1[nH]cnc2sc3c(c12)CCC3`, the IC50 was > 79 µM (inactive).
Consider `CC1Cc2ccccc2C(=O)N1` (centres undefined), for which the IC50 is > 79 µM (inactive).
Still for that read-out and setting: as for `Fc1ccc(-c2ccc(-c3nn4c(-c5ccco5)nnc4s3)o2)cc1`, the figure is > 79 µM (inactive).
For `CCOc1cc(/C=N/NC(N)=O)cc(Br)c1OCC(=O)Nc1cccc2ccccc12`, the IC50 was > 79 µM (inactive).
As to `COc1cc2nc(Nc3ccc(F)cc3)nc(N)c2cc1OC`, the IC50 was 42.9 µM (inactive).
Still for that read-out and setting: as for `COc1ccc(NC(=O)N(C)[C@H]2C[C@H]3c4[nH]c5ccc(-c6ccc7c(c6)OCO7)cc5c4CCN3C[C@H]2[C@H](C)O)cc1`, the figure is > 79 µM (inactive).
On to `CCN(CC(=O)Nc1ccc(OC)cc1)C(=O)c1cc(-c2cccs2)nn1-c1ccccc1`, for which the pIC50 was 5.04.
Turning to `CCN1C(=O)/C(=C/c2nc3ccccc3c(=O)n2-c2ccccc2)c2ccccc21`, the IC50 was > 79 µM (inactive).
As for `O=C(Nc1nc(-c2ccccn2)cs1)c1ccccc1-n1cnnn1`, the IC50 is > 79 µM (inactive).
`CCn1c(SCC(=O)Nc2ccccc2N2CCCCC2)nc2c1c(=O)n(C)c(=O)n2C`: the pIC50 is 4.90.
For the molecule `Nc1ccc(-c2n[nH]c(=O)c3ccccc23)cc1N`, the IC50 was > 79 µM (inactive).
Still for that read-out and setting: next, `N#CCCSc1ccccc1NC(=O)c1cc(=O)c2ccccc2o1`: > 79 µM (inactive); `O=C(Nc1nnc(C2CC2)s1)c1cc(-c2ccccc2)nn1-c1ccccc1`: > 79 µM (inactive).
For the molecule `COc1cc(NC(=O)c2ccc(-c3cn[nH]c3)c3ccoc23)cc(OC)c1OC`, the pIC50 is 4.98.
For `COC(=O)c1cc2ccc(OC)cc2c2cc(OC)c(OC)cc12`, the IC50 is > 79 µM (inactive).
On the same count and under the same terms, as for `COc1ccc(C(=O)NNC(=O)CCc2nc3ccccc3c(=O)[nH]2)cc1`, the figure is > 79 µM (inactive); as for `COC(=O)c1cc2ccccn2c2c(C(=O)OC)c(C(=O)OC)cc1-2`, > 79 µM (inactive); as for `CCOC(=O)CNS(=O)(=O)c1cc(-c2n[nH]c(=O)c3ccccc23)ccc1C`, > 79 µM (inactive).
Still for that read-out and setting: next, `COCCn1nnnc1CN(CCc1ccccc1)Cc1cc2cc(OC)ccc2[nH]c1=O`: > 79 µM (inactive); `COc1ccc2[nH]c(=O)c(CNc3ccc(C)c(C)c3)cc2c1`: 49.8 µM (inactive); `Cc1ccc(C(=O)OCC(=O)Nc2sccc2C(N)=O)cc1NC(=O)c1ccco1`: > 79 µM (inactive).
As for `CC(=O)c1cccc(-c2cnc3c(NC=O)cc(-c4ccc(F)cc4)cn23)c1`, the IC50 was > 79 µM (inactive).
Turning to `O=C(NCCN1CCN(c2ccccc2F)CC1)c1cccn2c(=O)c3ccccc3nc12`, the pIC50 was 4.95.
On to `COc1ccc(C(C)=O)cc1COC(=O)Cc1n[nH]c(=O)c2ccccc12`, for which the IC50 was > 79 µM (inactive).
The same measure, in the same setting: next, `CCOC(=O)CSc1nc2ccccc2c(=O)[nH]1`: > 79 µM (inactive); `Cn1c2c(c(=O)n(C)c1=O)C(c1ccc(Br)cc1)Nc1ccccc1O2` (centres undefined): > 79 µM (inactive).
Consider `O=C(NCC(=O)N(Cc1cccs1)C(C(=O)NC1CCCCC1)c1ccco1)c1ccco1` (centres undefined), for which the pIC50 was 4.81.
For the molecule `O=C1[C@H]2[C@@H](c3ccc(C(F)(F)F)cc3)N[C@]3(CCCN(Cc4ccc(F)cc4)C3=O)[C@H]2C(=O)N1Cc1ccccc1`, the IC50 is > 79 µM (inactive).
`COc1ccc(-c2cc(C(=O)NC(C)c3ccccn3)c3ccccc3n2)cc1OC` (centres undefined): the pIC50 was 4.89.
Take `O=C(COC(=O)Cn1[nH]c(=O)c2ccccc2c1=O)NNC(=O)c1ccc(Br)cc1`: the IC50 is > 79 µM (inactive).
As for `c1cncc(-c2nc(NCC3COc4ccccc4O3)c3ccccc3n2)c1` (centres undefined), the IC50 is > 79 µM (inactive).
As to `O=C(N/N=C/c1c(O)n(-c2ccccc2Cl)c(=O)c2ccccc12)C1COc2ccccc2O1` (centres undefined), the pIC50 was 4.79.
Take `Cn1c(=O)c2[nH]c(NN=Cc3cccc(Br)c3)nc2n(C)c1=O`: the IC50 is > 79 µM (inactive).
As for `O=C(NNC(=O)c1ccccc1OCc1ccccc1Cl)c1csc(N2CCOCC2)n1`, the pIC50 is 4.65.
Consider `COc1ccc(-c2oc3c(OC)c(OC)c(OC)c(O)c3c(=O)c2OC)cc1OC`, for which the IC50 was > 79 µM (inactive).
The same measure, in the same setting: next, `O=c1cc(CN2CCN(S(=O)(=O)c3cccc(Cl)c3)CC2)c2ccc(O)cc2o1`: > 79 µM (inactive); `CC(C)CC(C(=O)NC1CCCCC1)N(Cc1cccs1)C(=O)c1snc(C(N)=O)c1N` (centres undefined): 30.1 µM (inactive).
Consider `COc1ccc(-c2cc(-c3nnc(COC(=O)C4CC4)o3)c3ccccc3n2)cc1OC`, for which the pIC50 is 5.17.
In the case of `COCCn1cnc2c(c1=O)c1nc3ccccc3nc1n2/N=C/c1cccc(OC)c1`, the IC50 was 38 µM (inactive).
On to `CSc1nsc(SC)c1C(=O)N1CCN(S(=O)(=O)c2ccc(C)cc2)C1C(C)C` (centres undefined), for which the pIC50 was 4.66.
As to `CSc1nc2ncc3c(n2n1)CC1c2ccccc2CCN1C3=O` (centres undefined), the IC50 was > 79 µM (inactive).
The same measure, in the same setting: next, `COc1ccc(-c2cc(=O)oc3c(C)c(O)c(CN(C)C)cc23)cc1`: > 79 µM (inactive).
As to `CC(=O)c1ccc(N2CCN(C(=O)C3CCCN(c4ncnc5c4nc4n5CCCCC4)C3)CC2)cc1` (centres undefined), the pIC50 was 4.76.
`O=c1[nH]c(-c2cccnc2)nc2ccccc12`: the IC50 is > 79 µM (inactive).
Same read-out and setting: as for `O=C(COc1ccccc1Cl)NNC(=O)Cn1[nH]c(=O)c2ccccc2c1=O`, the figure is > 79 µM (inactive); as for `COc1cc(C(=O)NNC(=O)c2ccc3ccccc3n2)cc(OC)c1OC`, > 79 µM (inactive).
As to `CCOc1ccccc1Nc1nnc(SCc2nnc(-c3cc(OC)c(OC)c(OC)c3)o2)s1`, the pIC50 was 4.95.
For `COc1ccc(CC(=O)N(Cc2ccccc2)c2ccccc2)cc1S(=O)(=O)N1CCOCC1`, the IC50 was > 79 µM (inactive).
On the same count and under the same terms, next, `Cc1cc(C)cc(N(CCC#N)C(=O)COC(=O)Cn2[nH]c(=O)c3ccccc3c2=O)c1`: > 79 µM (inactive); `CCN1CCN(c2nc3c(c(=O)[nH]2)CCCC3)CC1`: > 79 µM (inactive); `CCOC(=O)c1c2ccc(OCC(=O)N/N=C/c3ccc(C)cc3)cc2n2ccccc12`: > 79 µM (inactive).
The same measure, in the same setting: as for `CCN(CC(=O)Nc1c(F)cccc1F)C(=O)Cn1[nH]c(=O)c2ccccc2c1=O`, the figure is > 79 µM (inactive); as for `Cc1noc(C)c1Cn1nc(C(=O)O)c2ccccc2c1=O`, > 79 µM (inactive); as for `O=C(COc1cccc(NC(=O)c2cccc([N+](=O)[O-])c2)c1)c1ccc(F)cc1`, > 79 µM (inactive).
As to `CN1CCN(Cc2nc3ccccc3c(=O)[nH]2)CC1`, the IC50 is > 79 µM (inactive).
`COc1cc(-c2cc(NC=O)c3ncc(-c4ccc(C(C)=O)cc4)n3c2)ccc1O`: the IC50 is > 79 µM (inactive).
The same measure, in the same setting: next, `N#Cc1ccccc1OCC(=O)Nc1nc(-c2ccccn2)cs1`: > 79 µM (inactive); `CC1(C)CC2CC(C)(CN2C(=O)COC(=O)Cn2[nH]c(=O)c3ccccc3c2=O)C1` (centres undefined): > 79 µM (inactive).
As for `CCOc1ccc(C(C(=O)NCC2CCCO2)N(C(=O)c2snc(C(N)=O)c2N)c2ccccc2F)cc1` (centres undefined), the pIC50 was 4.69.
